Bounds are passed on as bounds.

Results on seven molecules are retold here after ChEMBL document CHEMBL4387721, “Proteolysis targeting chimeras (PROTACs) in 'beyond rule-of-five' chemical space: Recent progress and future challenges” (Bioorg Med Chem Lett, 2019).

Common to all, as to type: cell-based
Assay [1] deals with T1, Protein cereblon/Cyclin-dependent kinase 9 (Homo sapiens, UniProt P50750+Q96SW2). The experiment in a line: Protac activity at CRBN/CDK9 in human HCT116 cells assessed as induction of CDK9 protein degradation after 6 hrs by Western blot analysis.
Target sequence in this assay (P50750 whole entry): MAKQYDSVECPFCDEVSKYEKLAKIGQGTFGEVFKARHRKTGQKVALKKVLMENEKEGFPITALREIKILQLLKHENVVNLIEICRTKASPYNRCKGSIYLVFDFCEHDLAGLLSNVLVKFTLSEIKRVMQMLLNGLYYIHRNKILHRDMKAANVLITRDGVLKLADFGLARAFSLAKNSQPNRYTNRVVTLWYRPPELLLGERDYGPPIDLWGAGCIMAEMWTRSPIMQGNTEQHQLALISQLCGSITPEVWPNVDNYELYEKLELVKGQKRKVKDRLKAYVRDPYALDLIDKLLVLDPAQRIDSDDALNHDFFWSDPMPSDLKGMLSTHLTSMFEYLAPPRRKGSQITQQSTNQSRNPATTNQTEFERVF
Target sequence in this assay (Q96SW2 whole entry): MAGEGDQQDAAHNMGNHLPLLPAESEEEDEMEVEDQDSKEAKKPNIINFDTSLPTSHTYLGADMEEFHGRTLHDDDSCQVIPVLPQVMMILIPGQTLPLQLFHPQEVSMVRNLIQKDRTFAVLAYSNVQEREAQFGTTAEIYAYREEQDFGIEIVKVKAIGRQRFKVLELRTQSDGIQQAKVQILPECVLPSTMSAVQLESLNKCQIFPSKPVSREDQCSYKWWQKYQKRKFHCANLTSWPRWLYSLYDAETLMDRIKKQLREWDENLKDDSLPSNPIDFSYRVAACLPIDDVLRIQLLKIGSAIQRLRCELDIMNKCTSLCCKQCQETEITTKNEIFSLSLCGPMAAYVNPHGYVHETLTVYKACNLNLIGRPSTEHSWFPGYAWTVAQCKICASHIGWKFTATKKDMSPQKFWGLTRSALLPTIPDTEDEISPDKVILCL
Assay [2] deals with T2, von Hippel-Lindau disease tumor suppressor/Tyrosine-protein kinase ABL1 (Homo sapiens, UniProt P00519+P40337). The experiment in a line: Protac activity at VHL/c-ABL in human K562 cells assessed as induction of c-ABL protein degradation incubated for 24 hrs by immunoblot method.
Target sequence in this assay (P00519 whole entry): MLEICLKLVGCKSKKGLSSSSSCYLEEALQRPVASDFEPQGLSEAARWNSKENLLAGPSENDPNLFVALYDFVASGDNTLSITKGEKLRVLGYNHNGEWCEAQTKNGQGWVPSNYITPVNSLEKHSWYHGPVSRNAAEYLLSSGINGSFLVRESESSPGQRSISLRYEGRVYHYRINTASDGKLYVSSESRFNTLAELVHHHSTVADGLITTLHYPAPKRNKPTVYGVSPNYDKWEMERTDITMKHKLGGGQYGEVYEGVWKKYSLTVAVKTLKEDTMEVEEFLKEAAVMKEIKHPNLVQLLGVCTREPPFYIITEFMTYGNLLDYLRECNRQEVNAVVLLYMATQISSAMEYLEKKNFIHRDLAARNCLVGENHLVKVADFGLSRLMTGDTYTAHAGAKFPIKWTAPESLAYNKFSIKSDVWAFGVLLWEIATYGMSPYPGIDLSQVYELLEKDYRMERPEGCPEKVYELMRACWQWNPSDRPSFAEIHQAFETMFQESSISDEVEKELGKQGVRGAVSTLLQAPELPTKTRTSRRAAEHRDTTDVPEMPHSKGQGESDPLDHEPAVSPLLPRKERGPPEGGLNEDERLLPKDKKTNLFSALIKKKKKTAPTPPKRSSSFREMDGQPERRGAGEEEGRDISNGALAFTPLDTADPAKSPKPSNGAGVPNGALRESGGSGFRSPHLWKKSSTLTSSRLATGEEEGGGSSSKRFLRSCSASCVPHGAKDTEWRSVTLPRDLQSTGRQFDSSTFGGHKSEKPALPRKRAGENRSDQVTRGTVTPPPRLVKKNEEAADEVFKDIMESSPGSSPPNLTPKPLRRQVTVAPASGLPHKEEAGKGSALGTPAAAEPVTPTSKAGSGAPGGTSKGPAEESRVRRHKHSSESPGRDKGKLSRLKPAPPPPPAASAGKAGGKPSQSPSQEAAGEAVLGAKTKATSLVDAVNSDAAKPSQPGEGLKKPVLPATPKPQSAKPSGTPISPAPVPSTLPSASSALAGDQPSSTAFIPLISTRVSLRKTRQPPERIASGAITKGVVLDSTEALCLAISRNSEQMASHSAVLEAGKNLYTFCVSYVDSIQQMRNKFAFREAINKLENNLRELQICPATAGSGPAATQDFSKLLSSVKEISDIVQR
Target sequence in this assay (P40337 whole entry): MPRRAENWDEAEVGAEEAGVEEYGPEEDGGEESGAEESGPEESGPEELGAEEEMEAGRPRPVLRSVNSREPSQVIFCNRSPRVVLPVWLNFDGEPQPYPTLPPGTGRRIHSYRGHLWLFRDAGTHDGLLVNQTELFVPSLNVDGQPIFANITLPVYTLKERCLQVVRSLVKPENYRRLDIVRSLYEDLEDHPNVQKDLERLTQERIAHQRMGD
Assay [3] deals with T2, von Hippel-Lindau disease tumor suppressor/Tyrosine-protein kinase ABL1. The experiment in a line: Protac activity at VHL/c-ABL in human K562 cells assessed as induction of c-ABL protein degradation at 1 uM incubated for 24 hrs by immunoblot method relative to control.
Target sequence in this assay (P00519 whole entry, looked up): as the sequence (P00519 whole entry) above
Target sequence in this assay (P40337 whole entry, looked up): as the sequence (P40337 whole entry) above
The target in assay [4] is T3, Protein cereblon/Peptidyl-prolyl cis-trans isomerase FKBP1A (Homo sapiens, UniProt P62942+Q96SW2). The experiment in a line: Protac activity at CRBN/FKBP12 in human Jurkat cells assessed as induction of FKBP12 protein degradation incubated for 12 hrs by immunoblot method.
Target sequence in this assay (P62942 whole entry): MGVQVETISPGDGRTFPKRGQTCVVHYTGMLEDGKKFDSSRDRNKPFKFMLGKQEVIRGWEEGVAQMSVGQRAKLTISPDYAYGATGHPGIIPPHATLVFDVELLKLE
Target sequence in this assay (Q96SW2 whole entry): as the sequence (Q96SW2 whole entry) above
For assay [5], the target named is T3, Protein cereblon/Peptidyl-prolyl cis-trans isomerase FKBP1A. The experiment in a line: Protac activity at CRBN/FKBP12 in human Jurkat cells assessed as induction of FKBP12 protein degradation up to 1000 nM incubated for 12 hrs by immunoblot method relative to control.
Target sequence in this assay (P62942 2-108 limits assumed): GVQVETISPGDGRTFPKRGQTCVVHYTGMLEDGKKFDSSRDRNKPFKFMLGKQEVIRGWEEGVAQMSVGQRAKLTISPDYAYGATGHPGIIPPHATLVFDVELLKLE
Target sequence in this assay (Q96SW2 whole entry partner): as the sequence (Q96SW2 whole entry) above
Assay [6] concerns the target T4, Protein cereblon/Tyrosine-protein kinase BTK (Homo sapiens, UniProt Q06187+Q96SW2). The experiment in a line: Protac activity at CRBN/BTK in human Ramos cells assessed as induction of BTK protein degradation at 300 nM incubated for 24 hrs by Western blot analysis relative to control.
Target sequence in this assay (Q06187 2-659 limits assumed): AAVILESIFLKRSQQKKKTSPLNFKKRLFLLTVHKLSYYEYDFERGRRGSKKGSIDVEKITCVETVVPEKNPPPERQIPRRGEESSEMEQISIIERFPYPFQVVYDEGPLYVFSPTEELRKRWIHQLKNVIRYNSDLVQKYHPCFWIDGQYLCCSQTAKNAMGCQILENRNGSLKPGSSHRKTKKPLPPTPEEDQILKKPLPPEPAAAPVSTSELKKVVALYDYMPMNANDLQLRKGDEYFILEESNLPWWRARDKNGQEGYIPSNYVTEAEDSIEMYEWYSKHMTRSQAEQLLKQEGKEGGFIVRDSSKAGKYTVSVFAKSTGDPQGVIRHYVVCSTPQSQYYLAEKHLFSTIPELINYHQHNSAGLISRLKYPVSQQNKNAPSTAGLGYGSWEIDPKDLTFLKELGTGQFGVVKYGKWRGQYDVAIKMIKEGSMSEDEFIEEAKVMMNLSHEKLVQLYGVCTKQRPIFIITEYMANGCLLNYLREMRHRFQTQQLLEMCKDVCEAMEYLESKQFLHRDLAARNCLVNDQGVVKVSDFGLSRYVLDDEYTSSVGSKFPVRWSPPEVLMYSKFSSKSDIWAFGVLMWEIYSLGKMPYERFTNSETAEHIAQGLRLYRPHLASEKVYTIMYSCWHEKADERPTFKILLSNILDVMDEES
Target sequence in this assay (Q96SW2 whole entry partner): as the sequence (Q96SW2 whole entry) above
Assay [7] has as its target T4, Protein cereblon/Tyrosine-protein kinase BTK. The experiment in a line: Protac activity at CRBN/BTK in human Ramos cells assessed as induction of BTK protein degradation incubated for 24 hrs by Western blot analysis.
Target sequence in this assay (Q06187 whole entry): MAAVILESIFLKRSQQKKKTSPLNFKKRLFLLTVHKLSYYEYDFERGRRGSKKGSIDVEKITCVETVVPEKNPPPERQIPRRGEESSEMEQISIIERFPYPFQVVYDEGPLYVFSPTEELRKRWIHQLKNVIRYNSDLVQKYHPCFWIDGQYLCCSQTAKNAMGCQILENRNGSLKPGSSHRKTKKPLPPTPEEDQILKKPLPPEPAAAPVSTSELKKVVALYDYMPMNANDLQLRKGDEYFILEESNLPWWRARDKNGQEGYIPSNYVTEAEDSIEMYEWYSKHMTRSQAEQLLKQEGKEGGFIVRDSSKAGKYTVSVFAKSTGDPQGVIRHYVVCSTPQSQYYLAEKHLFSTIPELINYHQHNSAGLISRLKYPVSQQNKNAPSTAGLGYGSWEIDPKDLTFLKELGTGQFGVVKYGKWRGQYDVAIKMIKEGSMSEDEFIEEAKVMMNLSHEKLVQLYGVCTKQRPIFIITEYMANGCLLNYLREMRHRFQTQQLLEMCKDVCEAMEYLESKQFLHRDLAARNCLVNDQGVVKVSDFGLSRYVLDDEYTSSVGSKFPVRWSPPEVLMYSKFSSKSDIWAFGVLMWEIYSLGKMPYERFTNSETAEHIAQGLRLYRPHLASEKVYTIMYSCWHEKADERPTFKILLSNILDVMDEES
Target sequence in this assay (Q96SW2 whole entry): as the sequence (Q96SW2 whole entry) above
Assay [8] addresses T5, Protein cereblon/Tyrosine-protein kinase BTK (Homo sapiens, UniProt Q06187+Q96SW2, C481S). The experiment in a line: Protac activity at CRBN/BTK C481S mutant in human MCL cells assessed as induction of BTK C481S mutant degradation.
The test system of assay [9] is Protein cereblon/Tyrosine-protein kinase BTK (Homo sapiens), Q06187+Q96SW2 [C481S]. The experiment in a line: Protac activity at CRBN/BTK C481S mutant in human MCL cells assessed as induction of BTK C481S mutant degradation at 500 nM relative to control.
The target of assay [10] is T5, Protein cereblon/Tyrosine-protein kinase BTK. The experiment in a line: Protac activity at CRBN/BTK C481S mutant in human MM cells assessed as induction of BTK C481S mutant protein degradation.
The test system of assay [11] is Protein cereblon/Tyrosine-protein kinase BTK (Homo sapiens), Q06187+Q96SW2 [C481S]. The experiment in a line: Protac activity at CRBN/BTK C481S mutant in human MM cells assessed as induction of BTK C481S mutant protein degradation at 500 nM relative to control.
The target in assay [12] is T1, Protein cereblon/Cyclin-dependent kinase 9. The experiment in a line: Protac activity at CRBN/CDK9 in human MOLT4 cells assessed as induction of CDK9 protein degradation after 6 hrs by Western blot analysis.
Target sequence in this assay (P50750 whole entry): as the sequence (P50750 whole entry) above
Target sequence in this assay (Q96SW2 whole entry): as the sequence (Q96SW2 whole entry) above
Assay [13] has the same target. The experiment in a line: Protac activity at CRBN/CDK9 in human MOLT4 cells assessed as induction of CDK9 protein degradation after 6 hrs by Western blot analysis relative to control.
Target sequence in this assay (P50750 whole entry, looked up): as the sequence (P50750 whole entry) above
Target sequence in this assay (Q96SW2 whole entry, looked up): as the sequence (Q96SW2 whole entry) above
Assay [14] is described as follows: Protac activity at CRBN/FKBP12 F36V mutant (unknown origin) expressed in human 293FT cells assessed as induction of FKBP12 F36V mutant protein degradation incubated for 4 hrs by Western blot analysis.
The next assay is filed under the species Homo sapiens. The experiment in a line: Protac activity at CRBN/FKBP12 F36V mutant (unknown origin) expressed in human 293FT cells assessed as induction of FKBP12 F36V mutant protein degradation incubated for 4 hrs by Western blot analysis relative to control.

T5 sequence (Q06187 2-659 C481S limits assumed, stated change not applied): as the sequence (Q06187 2-659 limits assumed) above, with C480S counted along it
T5 sequence (Q96SW2 whole entry, stated change not applied): as the sequence (Q96SW2 whole entry) above

For the molecule `O=C1CCC(N2C(=O)c3cccc(OCCCCCOc4ccc(CC(=O)Nc5cc(C6CCC6)n[nH]5)cc4)c3C2=O)C(=O)N1` (stereo not given), the DC50 in assay [1] worked out at 10 µM.
For `Cc1nc(Nc2ncc(C(=O)Nc3c(C)cccc3Cl)s2)cc(N2CCN(CCCCCCOCCOCCOCCCCCC(=O)N[C@H](C(=O)N3C[C@H](O)C[C@H]3C(=O)NCc3ccc(-c4scnc4C)cc3)C(C)(C)C)CC2)n1`, the DC50 in assay [2] stood at 1000 nM. The Emax in assay [3] was above 65%.
As for `CO[C@H]1C[C@@H]2CC[C@@H](C)[C@@](O)(O2)C(=O)C(=O)N2CCCC[C@H]2C(=O)O[C@H]([C@H](C)C[C@@H]2CC[C@@H](OCCOCc3cn(CCOCCOCCNc4cccc5c4C(=O)N(C4CCC(=O)NC4=O)C5=O)nn3)[C@H](OC)C2)CC(=O)[C@H](C)/C=C(\C)[C@@H](O)[C@@H](OC)C(=O)[C@H](C)C[C@H](C)/C=C/C=C/C=C/1C` (stereo not given in full), the DC50 in assay [4] came to 0.3 nM. The Emax in assay [5] is above 95%.
`NC(=O)c1c(-c2ccc(Oc3ccc(F)cc3F)cc2)nn([C@@H]2CCCN(C(=O)OCCOCCOCCOCCOCCOCCNc3cccc4c3C(=O)N(C3CCC(=O)NC3=O)C4=O)C2)c1N` (stereo not given in full): the maximal effect (Emax) in assay [6] was found to be 87%. Moreover, in assay [7], the DC50 came to 1.1 nM.
As for `Nc1ncnc2c1c(-c1ccc(Oc3ccccc3)cc1)nn2[C@@H]1CCCN(C(=O)c2cn(CCOCCOCCOCCNc3cccc4c3C(=O)N(C3CCC(=O)NC3=O)C4=O)nn2)C1` (stereo not given in full), the half-maximal degradation concentration (DC50) in [8] was above 6 nM; in assay [10] it was below 12 nM. In addition, the Emax in [9] and in [11] was above 94% in each case.
For the molecule `CC(C)(C)c1cnc(CSc2cnc(NC(=O)C3CCN(CC(=O)NCCOCCOCCOCCNc4cccc5c4C(=O)N(C4CCC(=O)NC4=O)C5=O)CC3)s2)o1` (stereo not given), the DC50 in [12] was below 250 nM. Besides, the Emax in assay [13] is above 95%.
Turning to `CC[C@H](C(=O)N1CCCC[C@H]1C(=O)O[C@H](CCc1ccc(OC)c(OC)c1)c1ccccc1OCC(=O)NCCCCCCOc1cccc2c1C(=O)N(C1CCC(=O)NC1=O)C2=O)c1cc(OC)c(OC)c(OC)c1` (stereo not given in full), the 50% degradation concentration (DC50) in [14] is below 100 nM. Besides, the Emax in the assay filed under Homo sapiens is 82%.
